The compounds below were run against T1, PARP1 (Homo sapiens (Human), UniProt P09874) (assay: cell-based assay (Proliferation Assay (PARP Inhibitors) in DLD-1 wt and DLD-1 BRCA2), Table 1).
Protocol: Proliferation Assay (PARP Inhibitors) in DLD-1 wt and DLD-1 BRCA2
Target sequence in this assay (P09874 whole entry): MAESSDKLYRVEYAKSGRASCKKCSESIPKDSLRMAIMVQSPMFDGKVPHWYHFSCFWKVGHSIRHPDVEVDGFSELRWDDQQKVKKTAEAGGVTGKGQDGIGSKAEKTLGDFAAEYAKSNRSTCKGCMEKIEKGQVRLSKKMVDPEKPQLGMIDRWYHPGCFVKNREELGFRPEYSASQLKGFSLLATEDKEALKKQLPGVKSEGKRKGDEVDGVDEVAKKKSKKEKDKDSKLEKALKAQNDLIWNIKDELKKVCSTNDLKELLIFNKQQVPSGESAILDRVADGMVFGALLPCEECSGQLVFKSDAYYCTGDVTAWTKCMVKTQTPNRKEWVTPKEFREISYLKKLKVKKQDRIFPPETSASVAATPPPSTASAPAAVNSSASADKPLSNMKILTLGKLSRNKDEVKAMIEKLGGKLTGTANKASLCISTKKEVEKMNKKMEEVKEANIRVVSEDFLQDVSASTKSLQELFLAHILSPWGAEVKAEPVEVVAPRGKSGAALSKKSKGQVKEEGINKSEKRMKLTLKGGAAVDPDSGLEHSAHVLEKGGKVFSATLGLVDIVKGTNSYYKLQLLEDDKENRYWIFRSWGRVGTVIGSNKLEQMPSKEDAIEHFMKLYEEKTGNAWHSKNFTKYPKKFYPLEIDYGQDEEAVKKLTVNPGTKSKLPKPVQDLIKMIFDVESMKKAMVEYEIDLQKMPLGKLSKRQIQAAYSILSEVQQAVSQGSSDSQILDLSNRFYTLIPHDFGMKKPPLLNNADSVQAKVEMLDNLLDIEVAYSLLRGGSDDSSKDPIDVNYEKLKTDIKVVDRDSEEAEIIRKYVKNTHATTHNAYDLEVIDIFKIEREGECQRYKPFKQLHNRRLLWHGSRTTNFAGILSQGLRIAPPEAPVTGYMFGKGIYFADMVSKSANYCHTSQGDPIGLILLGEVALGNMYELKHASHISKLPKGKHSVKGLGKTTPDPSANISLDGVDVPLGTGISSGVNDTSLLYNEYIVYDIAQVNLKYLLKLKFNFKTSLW
DLD-1-wt and DLD-1 mutant cells are cultured in RPMI 1640+10% FBS+1% PS. The cells are harvested into culture media for 2-3 days. The cells are diluted into culture media (density 2˜3×10^6) and 40 μL of cell suspension (50 cells/well for DLD-1 wt and 50 cells/well for DLD-1 BRCA (-/-). The plates are covered and spun at rt at 1000 rpm, for 1 minute and then transferred. The plates are placed into 37° C. 5% CO2 incubator overnight. Test compounds are dissolved at 10 mM DMSO stock solution and then 40 μL of stock solution is transferred to a 384 PP-plate. A 10-point dilution is carried out by transferring 10 uL compound into 30 μL DMSO by using TECAN (EVO200) liquid handler. The plates are spun at rt at 1000 rpm for 1 minute and then shaken on a plate shaker for 2 minutes. Forty nL of diluted compound is transferred into the cell plate by using a liquid handler. After 7 days of incubation, a CTG detection assay is performed. The CTG detection assay is carried out by removing the plates from the incubators and then equilibrated at rt for 15 minutes. The CellTiter Glo reagents are thawed and equilibrated at rt. CellTiter-Glo reagent ([…]) is added into each well, and the plates are placed at rt for 30 minutes followed by reading on EnVision. The inhibition activity is calculated using the formula: % Inhibition=100×(LumHC−LumSample)/(LumHC−LumLC).
In Table 1, ‘A’ indicates an IC50 of <0.1 μM, ‘B’ indicates an IC50 of ≥0.1 μM and <1.0 μM, and ‘C’ indicates an IC50 of ≥[…]. As shown by the results in Table 1, compounds of Formula (I), including pharmaceutically acceptable salts thereof, are effective PARP1 inhibitors.

Row | SMILES | IC50 [nM]
1 | CC[C@@H]1Oc2ccc(CN3CCN(c4ccc(C(=O)NC)nc4)CC3)cc2NC1=O (single isomer, unassigned) [Compound 1ab] | < 100
2 | CC[C@@H]1Oc2ccc(CN3CCN(c4ccc(C(=O)NC)nc4C)CC3)cc2NC1=O (single isomer, unassigned) [Compound 2ab] | < 100
3 | CC[C@H]1Oc2ccc(CN3CCN(c4ccc(C(=O)NC)nc4)CC3)cc2NC1=O [Compound 1aa] | < 100
4 | CC[C@H]1Oc2ccc(CN3CCN(c4ccc(C(=O)NC)nc4C)CC3)cc2NC1=O [Compound 2aa] | < 100
5 | CCC1Oc2ccc(CN3CCN(c4ccc(C(=O)NC)nc4)CC3)cc2NC1=O (centres unmarked) [Compound A1] | < 100
6 | CNC(=O)c1ccc(N2CCN(Cc3ccc4c(c3)NC(=O)C3(CC3)O4)CC2)c(F)n1 [Compound A7] | < 100
7 | CNC(=O)c1ccc(N2CCN(Cc3ccc4c(c3F)NC(=O)C3(CC3)O4)CC2)c(F)n1 [Compound A9] | < 100

The compounds below were run against T1, PARP1 (assay: biochemical assay (FP Binding Assay PARP1), Table 2).
Protocol: FP Binding Assay (PARP1, PARP2)
The PARP1 and PARP 2 protein and the PARPi-FL were purchased from BPS Bioscience. The assay buffer was 50 mM Tris pH 8.0, 0.001% Triton X-100, 10 mM MgCl2, 150 mM NaCl. The compounds were diluted into top point concentration in 384PP-plate and transferred serially into an Optiplate-384F plate. Compound (20 nL) or DMSO was added to assay plate and then 10 μL of 40 nM PARP1 or PARP2 (diluted using assay buffer) was added. The assay plate was centrifuged at 1000 rpm for 1 min and then incubated for 30 min at rt. 6 nM PARPi-FL (diluted using assay buffer) (10 uL) was added to the plate (final concentration of PARP1 and PARP2 was 20 nM, and PARPi-FL was 3 nM). After centrifuging at 1000 rpm for 1 min, the assay plate was incubated at rt 4 h. The plates were read using Envision with Excitation filter. The data analysis was done by calculating the inhibition rate using mP value using the following equation. Inhibition (%)=(1−mpC−mpL)/mpH−mpL×100%.
As shown by the results in Table 2, compounds of Formula (I), including pharmaceutically acceptable salts thereof, are effective PARP1 inhibitors.
Target sequence in this assay (P09874 whole entry, species assumed): as the sequence (P09874 whole entry) above

Row | SMILES | IC50 [nM]
8 | CNC(=O)c1ccc(N2CCN(Cc3ccc4c(c3)NC(=O)C3(CC3)O4)CC2)c(F)n1 [Compound A7] | < 5

From patent publication US20250214980A1, “MULTICYCLIC COMPOUNDS” (SLAP Pharmaceuticals LLC, priority 2022, published 2025)
